Structures can show the parent of a compound that is named as a salt.

The subject of one assay is A549 cells. In words: CCK-8 antiproliferative assay, A549. In kind it is cell-based. To be noted: Homo sapiens, A549; CCK-8, 48 h, mean ± SD of three experiments; read-out: IC50 A549. The protocol: (§1) All cells were cultured in Dulbecco’s Modified Eagle’s Medium (DMEM) (Burlington, MA, USA) or Roswell Park Memorial Institute (RPMI)-1640 medium containing 10% fetal bovine serum and 1% penicillin/streptomycin in an incubator at 37 °C and 5% CO2. […] Cell suspension with a concentration of 8 × 10^4 cells/mL was prepared after cell counting. 100 μL cell suspension was added to each well of the 96-well plate and then placed in an incubator overnight. Most of the derivatives were configured into 80 mM, 20 mM or 4 mM stock solution in DMSO, and the stock solution concentration of BFA and paclitaxel was 0.4 mM. […] The medium in each well was discarded, and 100 μL of gradient diluted derivative solution was added (the control group was added with serum-free medium).
On the technique in general: Tetrazolium assays rely on reduction of a dye to a coloured formazan, in cell work by metabolically active cells.

The next assay deals with MDA-MB-231 cells. In words: CCK-8 antiproliferative assay, MDA-MB-231. In kind it is cell-based. To be noted: Homo sapiens, MDA-MB-231; CCK-8, 48 h, mean ± SD of three experiments; read-out: IC50 MDA-MB-231. The protocol:
as §1

Another assay concerns L-02 cells. As to the kind of experiment: CCK-8 cytotoxicity assay, normal liver L-02. The following applies: Homo sapiens, L02; CCK-8, 48 h, normal liver cells, mean ± SD of three experiments; read-out: IC50 L-02. In kind it is cell-based. How it is done: as §1
In the next assay the test system is HepG2 cells. In words: CCK-8 antiproliferative assay, HepG2. The assay is classed as cell-based. To be noted: Homo sapiens, HepG2; CCK-8, 48 h, mean ± SD of three experiments; read-out: IC50 HepG2. The protocol:
as §1

The test system of a further assay is HeLa cells. In words: CCK-8 antiproliferative assay, HeLa. In kind it is cell-based, human. To be noted: for IC50: Homo sapiens, HeLa, CCK-8, 48 h, mean ± SD of three experiments, read-out: IC50 HeLa; for SIHeLa, selectivity index between L-02 and HeLa: SI = IC50(L-02)/IC50(HeLa). How it is done:
as §1

The subject of another assay is A375 cells. In words: CCK-8 antiproliferative assay, A375. The assay is classed as cell-based. To be noted: Homo sapiens, A-375; CCK-8, 48 h, mean ± SD of three experiments; read-out: IC50 A375. How it is done:
as §1

Usually IC50 stands for the point on the concentration scale where inhibition reaches its midpoint. In the case of `C[C@H]1CCC/C=C/[C@@H]2C[C@H](OC(=O)CCC(=O)Oc3ccc(OC(=O)c4ccc(N=C=S)cc4)cc3)C[C@H]2[C@H](OC(=O)CCC(=O)Oc2ccc(OC(=O)c3ccc(N=C=S)cc3)cc2)/C=C/C(=O)O1` [Compound 8f, Bis(4-((4-isothiocyanatobenzoyl)oxy)phenyl) O,O’-((1R,2E,6S,10E,11aS,13S,14aR)-6-methyl-4-oxo-1,6,7,8,9,11a,12,13,14,14a-decahydro-4H-cyclopenta[f][1]oxacyclotridecine-1,13-diyl) disuccinate], the IC50 in the assay on A549 cells was more than 40 µM; with MDA-MB-231 cells, more than 40 µM; with L-02 cells it was more than 80 µM; in the assay on HepG2 cells it was more than 40 µM; in the assay on HeLa cells, more than 40 µM; with A375 cells, more than 40 µM.
In the case of `C[C@H]1CCC/C=C/[C@@H]2C[C@H](O)C[C@H]2[C@H](OC(=O)CCC(=O)OCCOCCOC(=O)c2ccc(N=C=S)cc2)/C=C/C(=O)O1` [Compound 9d, (1R,2E,6S,10E,11aS,13S,14aR)-13-Hydroxy-6-methyl-4-oxo-1,6,7,8,9,11a,12,13,14,14a-decahydro-4H-cyclopenta[f][1]oxacyclotridecin-1-yl (2-(2-((4-isothiocyanatobenzoyl)oxy)ethoxy)ethyl) succinate], the IC50 in the assay on A549 cells came out at 2.85 ± 0.1 µM; in the assay with MDA-MB-231 cells, 2.05 ± 0.27 µM; in the assay on L-02 cells, 9.18 ± 0.13 µM; in the assay with HepG2 cells it was 2.34 ± 0.31 µM; in the assay on HeLa cells it was 0.99 ± 0.02 µM; in the assay on A375 cells, 2.93 ± 0.12 µM.
As to `C[C@H]1CCC/C=C/[C@@H]2C[C@H](OC(=O)/C=C\C(=O)OCC#CCOC(=O)c3ccc(N=C=S)cc3)C[C@H]2[C@H](OC(=O)/C=C\C(=O)OCC#CCOC(=O)c2ccc(N=C=S)cc2)/C=C/C(=O)O1` [Compound 8i, Bis(4-((4-isothiocyanatobenzoyl)oxy)but-2-yn-1-yl) O,O’-((1R,2E,6S,10E,11aS,13S,14aR)-6-methyl-4-oxo-1,6,7,8,9,11a,12,13,14,14a-decahydro-4H-cyclopenta[f][1]oxacyclotridecine-1,13-diyl) dimaleate], the IC50 was more than 40 µM with A549 cells; more than 40 µM in the assay with MDA-MB-231 cells; more than 80 µM with L-02 cells; more than 40 µM in the assay on HepG2 cells; more than 40 µM in the assay on HeLa cells; more than 40 µM in the assay on A375 cells.
On to `C[C@H]1CCC/C=C/[C@@H]2C[C@H](OC(=O)CCC(=O)OCCOC(=O)c3ccc(N=C=S)cc3)C[C@H]2[C@H](OC(=O)CCC(=O)OCCOC(=O)c2ccc(N=C=S)cc2)/C=C/C(=O)O1` [Compound 8a, Bis(2-((4-isothiocyanatobenzoyl)oxy)ethyl) O,O’-((1R,2E,6S,10E,11aS,13S,14aR)-6-methyl-4-oxo-1,6,7,8,9,11a,12,13,14,14a-decahydro-4H-cyclopenta[f][1]oxacyclotridecine-1,13-diyl) disuccinate], for which the half-maximal inhibitory concentration (IC50) with A549 cells was more than 40 µM; in the assay on MDA-MB-231 cells, more than 40 µM; in the assay with L-02 cells it was more than 80 µM; with HepG2 cells, more than 40 µM; with HeLa cells, 12 ± 1.47 µM; in the assay on A375 cells, more than 40 µM. Also, in the assay on HeLa cells, the “SIHeLa, selectivity index between L-02 and HeLa” value was more than 6.68.
Turning to `C[C@H]1CCC/C=C/[C@@H]2C[C@H](O)C[C@H]2[C@H](OC(=O)CCC(=O)OCCCCOC(=O)c2ccc(N=C=S)cc2)/C=C/C(=O)O1` [Compound 9b, (1R,2E,6S,10E,11aS,13S,14aR)-13-Hydroxy-6-methyl-4-oxo-1,6,7,8,9,11a,12,13,14,14a-decahydro-4H-cyclopenta[f][1]oxacyclotridecin-1-yl (4-((4-isothiocyanatobenzoyl)oxy)butyl) succinate], the IC50 was found to be 2.84 ± 0.02 µM with A549 cells; 2.23 ± 0.04 µM in the assay on MDA-MB-231 cells; 10.6 ± 0.6 µM with L-02 cells; 6.54 ± 0.18 µM in the assay with HepG2 cells; 2.28 ± 0.04 µM in the assay with HeLa cells; 2.79 ± 0.25 µM in the assay with A375 cells. Further, the “SIHeLa, selectivity index between L-02 and HeLa” value with HeLa cells came out at 4.63.
On to `C[C@H]1CCC/C=C/[C@@H]2C[C@H](OC(=O)CCC(=O)OCC#CCOC(=O)c3ccc(N=C=S)cc3)C[C@H]2[C@H](OC(=O)CCC(=O)OCC#CCOC(=O)c2ccc(N=C=S)cc2)/C=C/C(=O)O1` [Compound 8c, Bis(4-((4-isothiocyanatobenzoyl)oxy)but-2-yn-1-yl) O,O’-((1R,2E,6S,10E,11aS,13S,14aR)-6-methyl-4-oxo-1,6,7,8,9,11a,12,13,14,14a-decahydro-4H-cyclopenta[f][1]oxacyclotridecine-1,13-diyl) disuccinate], for which the IC50 in the assay on A549 cells is more than 40 µM; with MDA-MB-231 cells, more than 40 µM; in the assay with L-02 cells, more than 80 µM; in the assay on HepG2 cells it was more than 40 µM; with HeLa cells, 39 ± 1.43 µM; in the assay on A375 cells, more than 40 µM. Also, in the assay on HeLa cells, the “SIHeLa, selectivity index between L-02 and HeLa” value is recorded as more than 2.05.
In the case of `C[C@H]1CCC/C=C/[C@@H]2C[C@H](OC(=O)/C=C\C(=O)OCCCCCCOC(=O)c3ccc(N=C=S)cc3)C[C@H]2[C@H](OC(=O)/C=C\C(=O)OCCCCCCOC(=O)c2ccc(N=C=S)cc2)/C=C/C(=O)O1` [Compound 8k, Bis(6-((4-isothiocyanatobenzoyl)oxy)hexyl) O,O’-((1R,2E,6S,10E,11aS,13S,14aR)-6-methyl-4-oxo-1,6,7,8,9,11a,12,13,14,14a-decahydro-4H-cyclopenta[f][1]oxacyclotridecine-1,13-diyl) dimaleate], the IC50 was more than 40 µM in the assay on A549 cells; more than 40 µM with MDA-MB-231 cells; more than 80 µM with L-02 cells; more than 40 µM in the assay on HepG2 cells; more than 40 µM in the assay on HeLa cells; more than 40 µM with A375 cells.
As for `C[C@H]1CCC/C=C/[C@@H]2C[C@H](OC(=O)CCC(=O)OCCOCCOC(=O)c3ccc(N=C=S)cc3)C[C@H]2[C@H](OC(=O)CCC(=O)OCCOCCOC(=O)c2ccc(N=C=S)cc2)/C=C/C(=O)O1` [Compound 8d, Bis(2-(2-((4-isothiocyanatobenzoyl)oxy)ethoxy)ethyl) O,O’-((1R,2E,6S,10E,11aS,13S,14aR)-6-methyl-4-oxo-1,6,7,8,9,11a,12,13,14,14a-decahydro-4H-cyclopenta[f][1]oxacyclotridecine-1,13-diyl) disuccinate], the IC50 is more than 40 µM in the assay with A549 cells; more than 40 µM with MDA-MB-231 cells; more than 80 µM in the assay on L-02 cells; more than 40 µM in the assay on HepG2 cells; 7.67 ± 0.33 µM in the assay on HeLa cells; 22.8 ± 1.58 µM in the assay on A375 cells.
Take `C[C@H]1CCC/C=C/[C@@H]2C[C@H](O)C[C@H]2[C@H](OC(=O)CCC(=O)Oc2ccc(OC(=O)c3ccc(N=C=S)cc3)cc2)/C=C/C(=O)O1` [Compound 9f, (1R,2E,6S,10E,11aS,13S,14aR)-13-Hydroxy-6-methyl-4-oxo-1,6,7,8,9,11a,12,13,14,14a-decahydro-4H-cyclopenta[f][1]oxacyclotridecin-1-yl (4-((4-isothiocyanatobenzoyl)oxy)phenyl) succinate]: the IC50 was 16.18 ± 0.06 µM in the assay with A549 cells; 32.1 ± 1.03 µM in the assay with MDA-MB-231 cells; 25.1 ± 0.82 µM in the assay with L-02 cells; 27.7 ± 0.47 µM with HepG2 cells; 13.1 ± 0.45 µM in the assay on HeLa cells; 21.3 ± 0.33 µM in the assay with A375 cells. In the assay on HeLa cells, the “SIHeLa, selectivity index between L-02 and HeLa” value is recorded as 1.91.
In the case of `C[C@H]1CCC/C=C/[C@@H]2C[C@H](O)C[C@H]2[C@H](OC(=O)/C=C\C(=O)OCC#CCOC(=O)c2ccc(N=C=S)cc2)/C=C/C(=O)O1` [Compound 9i, (1R,2E,6S,10E,11aS,13S,14aR)-13-Hydroxy-6-methyl-4-oxo-1,6,7,8,9,11a,12,13,14,14a-decahydro-4H-cyclopenta[f][1]oxacyclotridecin-1-yl (4-((4-isothiocyanatobenzoyl)oxy)but-2-yn-1-yl) maleate], the IC50 in the assay on A549 cells was determined as 10.3 ± 0.35 µM; with MDA-MB-231 cells, 10 ± 0.26 µM; in the assay with L-02 cells, 28.14 ± 0.14 µM; in the assay with HepG2 cells, 11.9 ± 0.32 µM; in the assay with HeLa cells, 6.59 ± 0.75 µM; with A375 cells, 9.1 ± 0.46 µM. Moreover, in the assay on HeLa cells, the “SIHeLa, selectivity index between L-02 and HeLa” value was determined as 4.27.
Consider `C[C@H]1CCC/C=C/[C@@H]2C[C@H](O)C[C@H]2[C@H](OC(=O)/C=C\C(=O)OCCCCOC(=O)c2ccc(N=C=S)cc2)/C=C/C(=O)O1` [Compound 9h, (1R,2E,6S,10E,11aS,13S,14aR)-13-Hydroxy-6-methyl-4-oxo-1,6,7,8,9,11a,12,13,14,14a-decahydro-4H-cyclopenta[f][1]oxacyclotridecin-1-yl (4-((4-isothiocyanatobenzoyl)oxy)butyl) maleate], for which the IC50 in the assay with A549 cells is 8.54 ± 0.26 µM; in the assay on MDA-MB-231 cells it was 5.71 ± 0.2 µM; in the assay with L-02 cells, 27.8 ± 1.39 µM; in the assay with HepG2 cells, 13.27 ± 0.1 µM; in the assay with HeLa cells, 9.68 ± 0.24 µM; with A375 cells, 11.2 ± 0.29 µM. Moreover, the “SIHeLa, selectivity index between L-02 and HeLa” value with HeLa cells amounted to 2.87.

The values above are taken from publication PMC10254530, “Design and Synthesis of Brefeldin A-Isothiocyanate Derivatives with Selectivity and Their Potential for Cervical Cancer Therapy” (Molecules, 2023).
